Publication PMC9655874, “Analysis of Volatile Secondary Metabolites in Ocimum basilicum Cell Suspensions: Inhibition, In Silico Molecular Docking, and an ADMET Analysis against Proteolytic Enzymes of Rhynchophorus ferrugineus” (Plants, 2022)
≈ marks a conversion by molar mass, not a printed value.

Legend:
[1] = test system: R. ferrugineus 4th larvae; assay: Topical application (contact insecticide) to fourth instar larvae; format: in vivo, Rhynchophorus ferrugineus
Procedure: (§1) Cells were suspended in the methanolic extract at serially increasing concentrations for 40 days. To dilute the compounds, TritonX-100 (0.1%) was added to acetone after the chemicals were dissolved. Adults or larvae of R. ferrugineus were purchased. They were then cultured using long lengths of sugar cane stem. The extracts’ anti-larvae action was assessed by applying topically to larvae and keeping them at 4–5 °C for 5 min. Utilizing a manually controlled micro-applicator, each larva had extract injected into its dorsum in three separate 10 µL doses using a 50-ll micro-syringe from Hertfordshire, UK’s Burkard Manufacturing Co., Ltd. (MS-N50; Shizuoka, Japan’s Ito Corp.). Five larvae in a box with three replications were fed on portions of long sugarcane stem measuring 10 cm. […] The sugarcane stem’s ten-centimeter-long portions cut into equal longitudinal halves were used to measure the antifeedant activity against adults. Long sections of sugarcane stem with a surface area of approximately 32.2 cm^2 were dried in air at room temperature, assuming a dipping time of 10 s and an initial serial concentration of (10 mL). Each treated object remained in a plastic container. Each box included an additional pair (male and female). Each therapy was administered ten times. In total, 24-, 48-, 72-, and 96-h feeding observations were assessed.
(§2) Statistics and probit analysis were performed using SPSS 25.0, as mentioned by Finney. To sum up, all numerical predictions of toxicity variables and findings were presented as the mean ± SE. We regressed mortality and translated the resulting dosage to an LC50 value (µg/mL). […] Enzyme activity data were analyzed using an ANOVA. Means were separated using the SNK (Student–Newman–Keuls) test, and deviations at the p ˂ 0.05 level were considered noteworthy.

[2] = test system: trypsin proteinase of R. ferrugineus midgut; assay: Trypsin activity in midgut of treated larvae (in vivo); conditions: larvae treated 24 h, midgut preparation
Procedure: (§4) We used a serine protease assay buffer and a modified version of the fast microplate method to analyze the serine proteinase’s specific activity in mixtures (150 µL) [26]. […] The sample (10 µL) was diluted using an assay buffer to 50 µL to determine the presence of trypsin proteinase, chymotrypsin proteinase, and elastase. Assay buffer was used to dilute stock substrates of BAρNA (100 mg/mL DMSO), both SAAPFρNA and SAAPLρNA (100 mg/mL DMF), to 1.0 mg/mL. To halt the reaction after 15 min of incubation at 37 °C, 50 µL of acetic acid (30%, v/v) was added. The intensity of the activity was measured using a 405 nm ELISA plate reader. A denaturation enzyme was used in place of an active enzyme in the experiment mixture. For three substrates (SAAPLρNA, BAρNA, and SAAPFρNA), activity levels of certain proteinases were assessed as OD mg^−1 protein min^−1.
(§5) An experiment that was set up free of potential inhibitors served as a control. An ELISA plate fast reader measured the enzymes’ absorption at various wavelengths. For each inhibitor, the control enzyme’s percentage activity was assessed for each enzyme. Four instars midgut larvae were treated with previous concentrations of extracts or compounds, assessed as previously mentioned, to measure the protease activity in vivo. Larvae were subjected to extract- and compound-treated leaf discs for 24 h.

[3] = biological target: elastase of R. ferrugineus midgut; assay: Serine proteinase specific activity, elastase (in vitro); format: biochemical, Rhynchophorus ferrugineus; conditions: 4th instar midgut homogenate
[4] = biological target: metalloprotease of R. ferrugineus midgut; assay: Metalloproteinase specific activity, CEGR substrate (in vitro); conditions: 4th instar midgut homogenate
Procedure: (§6) The ten midgut larvae from the fourth stage were neatly eliminated, dissected, and repeatedly washed with 0.9% NaCl solution. A 500 µL protease test solution, including 50 mM HEPS, 0.1% Triton X-100, and 5 mM DTT (pH 8.0), was utilized to homogenize the midgut instar. The homogenates were then centrifuged employing a Sigma 3k30 (cooling centrifuge) at 5000 rpm for 30 min to evaluate the supernatant’s enzyme activity and protein content. Before introducing CEGR (125 µL, 2% (w/v)), each experiment’s supernatant (10 µL) was incubated in an assay buffer (60 µL) at 37 °C for 20 min (pH 8). During a 10 min incubation period without a substrate, 10 µL enzyme samples were tested (20 min. for EDTA, EGTA, 1.10, Phenanthroline). After 180 min at 37 °C, 300 µL of cold TCA, 10% (v/v), was used to terminate the reaction. For the next 20 min, the mixture was spun (5000 rpm, Sigma 3K30). The absorbance was measured at 450 nm after mixing the supernatant with hydroxide solution (10 µL, 10 N) using an ELISA reader. An enzyme-free assay combination was utilized as a blank, and particular activity was evaluated utilizing the OD493 mg^−1 protein min^−1 and an enzyme-free blank specimen.
as §5

[5] = test system: total proteases of R. ferrugineus midgut; assay: Total protease activity in midgut of treated larvae (in vivo); conditions: larvae treated 24 h, midgut preparation
Procedure: (§7) The homogenate of R. ferrugineus 4th midgut instar larvae (lab strain) was assayed for total proteolytic enzyme activity using azocasein, as Darrag et al. [26], with modifications. Ten 4th midgut larval homogenates were carefully removed, incised, and then rinsed in a solution containing 0.9% NaCl before even being homogenized in a buffer (500 µL) containing 5 mM dithiothreitol (DTT), 0.1% (v/v) Triton X-100, and 50 mM N-2-hydroxyethyl piperazine-N′-2-ethane sulphonic acid (HEPS), and 8.0 pH. It was spun in a centrifuge (Sigma 3k30), and the remaining homogenates were from a preliminary phase for 30 min at 5000 rpm. Using the supernatants, the protein concentration and proteolytic enzyme activity were determined. […] Before each reaction experiment, 40-day-old methanolic extract of cell suspension, pure chemicals, and 10 μL of enzyme specimens were incubated for 10 min. The addition of the substrate initiated the reaction, which was allowed for 20 min in the case of leupeptin before being terminated 180 min later by adding 300 µL of cold tri-chloroacetic acid (TCA) (10%, v/v). Twenty minutes were spent centrifuging the mixture at 5000 rpm (Sigma 3k30). Overall, 10 µL of NaOH (10 N) was added to the supernatant, and the absorbance was measured using an ELISA plate reader at 450 nm to quantify the enzymes’ specific activity as OD450/mg protein/h.
as §5

[6] = test system: cysteine protease of R. ferrugineus midgut; assay: Cysteine protease activity in midgut of treated larvae (in vivo); set-up: species or system Rhynchophorus ferrugineus; conditions: larvae treated 24 h, midgut preparation
Procedure: (§3) Utilizing the substrate N-benzoyl-Phe-Val-Arg-p-nitroanilide hydrochloride and certain modifications, the cysteine proteinases of R. ferrugineus homogenate from the fourth midgut instar was tested for activity. Ten larvae of the fourth midgut were carefully taken out, dissected, and periodically washed with 0.9% (w/v) NaCl solution, assay buffer containing 50 mM HEPS, 5 mM DTT, and 0.1% Triton X-100 (v/v) (pH 8.0, 500 µL) was used to homogenize the samples. The homogenates were spun using a cooling Sigma 3k30 centrifuge for 30 min at 5000 rpm. […] Before introducing 100 µL of the substrate, 10 µL of the supernatant was incubated in assay buffer (60 µL, pH = 8) at 37 °C for 30 min. Enzyme samples in 10 µL were incubated for 10 min with iodoacetic acid before the addition of the substrate. […] The absorbance at 520 nm was measured after spinning the reaction for 6 min at 5000 rpm. The activity in the midgut was assayed at OD520.60 min^−1 mg^−1 of protein with an ELISA rapid reader.

R. ferrugineus adults = assay: whole plant or invertebrate; format: in vivo; conditions: Rhynchophorus ferrugineus, read-out: LC50 (µg/mL) 95% CF
Procedure: as §1, §2

[7] = biological target: total proteases of R. ferrugineus midgut; assay: Total proteolytic enzyme activity of 4th instar midgut homogenate, azocasein (in vitro)
Procedure: as §7, §5

[8] = biological target: trypsin proteinase of R. ferrugineus midgut; assay: Serine proteinase specific activity, trypsin (in vitro); conditions: 4th instar midgut homogenate
Procedure: as §4, §5

[9] = biological target: cysteine protease of R. ferrugineus midgut; assay: Cysteine proteinase activity (in vitro); format: biochemical, Rhynchophorus ferrugineus; conditions: 4th instar midgut homogenate
Procedure: as §3

[10] = test system: metalloprotease of R. ferrugineus midgut; assay: Metalloprotease activity in midgut of treated larvae (in vivo); conditions: larvae treated 24 h, midgut preparation
Procedure: as §6, §5

[11] = test system: elastase of R. ferrugineus midgut; assay: Elastase activity in midgut of treated larvae (in vivo); set-up: species or system Rhynchophorus ferrugineus; conditions: larvae treated 24 h, midgut preparation

SMILES: C=C(C)C1CCC(C)(O)CC1 (stereo not drawn) [β-terpineol]
- LD50 (µg/Larvae) 95% CF ([1]; 4th larvae, topical, 95% confidence limits in brackets): 42.6 (39.7–44.3) µg/Larvae
- LD50 ([1]; larvae, topical application): 42.6 µg/larva
- IC50 trypsin proteinase (in vivo) [2]: 237.1 µg/mL (≈ 1540 µM)
- IC50 elastase (in vitro) [3]: 112.6 µg/mL (≈ 730 µM)
- IC50 metalloprotease (in vitro) [4]: 543.5 µg/mL (≈ 3520 µM)
- IC50 total proteases (in vivo) [5]: 379.5 µg/mL (≈ 2460 µM)
- IC50 cysteine protease (in vivo) [6]: 427.4 µg/mL (≈ 2770 µM)
- LC50 (R. ferrugineus adults): 3920 µg/mL (≈ 25400 µM)
- IC50 total proteases (in vitro) [7]: 281.7 µg/mL (≈ 1830 µM)
- IC50 trypsin proteinase (in vitro) [8]: 168.4 µg/mL (≈ 1090 µM)
- IC50 cysteine protease (in vitro) [9]: 287.3 µg/mL (≈ 1860 µM)
- IC50 metalloprotease (in vivo) [10]: 1175.2 µg/mL (≈ 7620 µM)
- IC50 elastase (in vivo) [11]: 239.4 µg/mL (≈ 1550 µM)
